Legend:
Assay type in all cases: physicochemical
[1] = accelerated stability study (75% relative humidity, 40° C., one week); settings: one week at 75% relative humidity
Protocol: An accelerated stability study was conducted on the crystalline solid. Approximately 10 mg of crystalline solid was placed into a 4 mL vial, and the vial was covered with a Kimwipe. The vial was stored for one week inside a stability chamber producing a relative humidity of 75% at 40° C.

[2] = hygroscicity by dynamic vapor sorption; settings: transitioned from 5% to 95% relative humidity
Protocol: Dynamic vapor sorption was performed using a Q5000SA. The sample (5-15 mg) was loaded into a metallic quartz sample pan, suspended from a microbalance, and exposed to a humidified stream of nitrogen gas. Weight changes were relative to a matching empty reference pan opposite the sample, suspended from the microbalance. The sample was held for a minimum of 10 min at each humidity level and only progressed to the next humidity level if there was <0.002% change in weight between measurements (interval: 5 s) or 45 min had elapsed (for 5-65% RH) or 2 hours had elapsed (for 80 and 95% RH). The following program was used: • 1. Equilibration at 50% RH • 2. 50% to 5% (50%, 35%, 20%, and 5%) • 3. 5% to 95% (5%, 20%, 35%, 50%, 65%, 80%, and 95%) • 4. 95% to 5% (95%, 80%, 65%, 50%, 35%, 20%, and 5%) • 5. 5% to 50% (5%, 20%, 35%, and 50%).
The crystalline solid was analyzed for hygroscopicity.

[3] = water solubility of the crystalline solid; settings: pH 7.0 (phosphate buffer), 37° C., after 30 minutes

Substance: Maleic Acid Salt of (S)-1-((R)-3-amino-1-(4-((6-amino-9H-purin-9-yl)methyl)-6-(2,5-difluoro-4-methoxyphenyl)pyridin-3-yl)piperidin-3-yl)-2,2-difluoroethan-1-ol [Example 1]
- change of crystalline form by XRPD after the stability study [1]: no change of the crystalline form
- HPLC purity after the stability study ([1]; 99.59 area percent before the study): 99.56 area percent
- increase in weight by dynamic vapor sorption [2]: 0.507%

Substance: p-Toluenesulfonic Acid Salt of (S)-1-((R)-3-amino-1-(4-((6-amino-9H-purin-9-yl)methyl)-6-(2,5-difluoro-4-methoxyphenyl)pyridin-3-yl)piperidin-3-yl)-2,2-difluoroethan-1-ol [Example 3]
- water solubility (mg/mL of the free base (S)-1-((R)-3-amino-1-(...)piperidin-3-yl)-2,2-difluoroethan-1-ol) [3]: 1.61 mg/mL
